# Experimental data as given in ChEMBL document CHEMBL1649488, “In vitro activities of echinocandins against Candida krusei determined by three methods: MIC and minimal fungicidal concentration measurements and time-kill studies” (2009).
# The source made the active and inactive calls. The rule behind the calls is not given here.
# Experiments:
# Type in all cases: functional
# [1] = system: Pichia kudriavzevii; test: Antifungal activity against Candida krusei ATCC 6258 bloodstream forms assessed as time to achieve 90% fungal growth reduction at 2 mg/L by time-kill analysis
# [2] = system: Pichia kudriavzevii; test: Antifungal activity against Candida krusei ATCC 6258 bloodstream forms assessed as time to achieve 99% fungal growth reduction at 32 mg/L by time-kill analysis
# [3] = system: Pichia kudriavzevii; test: Fungicidal activity against Candida krusei ATCC 6258 bloodstream forms after 24 hrs by time-kill analysis; conditions: ATCC 6258, 24 h
# [4] = system: Pichia kudriavzevii; test: Fungicidal activity against Candida krusei CK1 bloodstream forms after 24 hrs by time-kill analysis; conditions: CK1, 24 h
# [5] = system: Pichia kudriavzevii; test: Fungicidal activity against Candida krusei EU123 bloodstream forms after 24 hrs by time-kill analysis; conditions: EU123, 24 h
# [6] = system: Pichia kudriavzevii; test: Fungicidal activity against Candida krusei ATCC 6258 bloodstream forms after 48 hrs by M27-A3 microdilution method
# [7] = system: Pichia kudriavzevii; test: Antifungal activity against Candida krusei ATCC 6258 bloodstream forms assessed as minimum concentration producing >= 100% growth reduction after 24 hrs by M27-A3 microdilution method; conditions: ATCC 6258, 24 h
# [8] = system: Pichia kudriavzevii; test: Antifungal activity against Candida krusei ATCC 6258 bloodstream forms assessed as time to achieve 99.9% fungal growth reduction at 0.5 mg/L by time-kill analysis
# [9] = system: Pichia kudriavzevii; test: Antifungal activity against Candida krusei ATCC 6258 bloodstream forms assessed as time to achieve 99% fungal growth reduction at 0.12 mg/L by time-kill analysis
# [10] = system: Pichia kudriavzevii; test: Antifungal activity against Candida krusei ATCC 6258 bloodstream forms assessed as time to achieve 50% fungal growth reduction at 8 mg/L by time-kill analysis
# [11] = system: Pichia kudriavzevii; test: Antifungal activity against Candida krusei CK18 bloodstream forms after 24 hrs by time-kill analysis; conditions: CK18, 24 h
# [12] = system: Pichia kudriavzevii; test: Antifungal activity against Candida krusei ATCC 6258 bloodstream forms assessed as time to achieve 99.9% fungal growth reduction at 8 mg/L by time-kill analysis
# [13] = system: Pichia kudriavzevii; test: Antifungal activity against Candida krusei CK6 bloodstream forms after 24 hrs by time-kill analysis; conditions: CK6, 24 h
# [14] = system: Pichia kudriavzevii; test: Antifungal activity against Candida krusei ATCC 6258 bloodstream forms after 24 hrs by time-kill analysis; conditions: ATCC 6258, 24 h
# [15] = system: Pichia kudriavzevii; test: Fungicidal activity against Candida krusei CK6 bloodstream forms after 24 hrs by time-kill analysis; conditions: CK6, 24 h
# [16] = system: Pichia kudriavzevii; test: Antifungal activity against Candida krusei ATCC 6258 bloodstream forms assessed as minimum concentration producing >= 100% growth reduction after 48 hrs by M27-A3 microdilution method; conditions: ATCC 6258, 48 h
# [17] = system: Pichia kudriavzevii; test: Antifungal activity against Candida krusei ATCC 6258 bloodstream forms assessed as time to achieve 99% fungal growth reduction at 0.5 mg/L by time-kill analysis
# [18] = system: Pichia kudriavzevii; test: Fungicidal activity against Candida krusei CK18 bloodstream forms after 24 hrs by time-kill analysis; conditions: CK18, 24 h
# [19] = system: Pichia kudriavzevii; test: Antifungal activity against Candida krusei ATCC 6258 bloodstream forms assessed as time to achieve 99.9% fungal growth reduction at 32 mg/L by time-kill analysis
# [20] = system: Pichia kudriavzevii; test: Fungicidal activity against Candida krusei CK2 bloodstream forms after 24 hrs by time-kill analysis; conditions: CK2, 24 h
# [21] = system: Pichia kudriavzevii; test: Antifungal activity against Candida krusei ATCC 6258 bloodstream forms assessed as time to achieve 50% fungal growth reduction at 2 mg/L by time-kill analysis
# [22] = system: Pichia kudriavzevii; test: Antifungal activity against Candida krusei ATCC 6258 bloodstream forms assessed as minimum concentration producing >= 50% growth reduction after 48 hrs by M27-A3 microdilution method; conditions: ATCC 6258, 48 h
# [23] = system: Pichia kudriavzevii; test: Fungicidal activity against Candida krusei CY118 bloodstream forms after 24 hrs by time-kill analysis; conditions: CY118, 24 h
# [24] = system: Pichia kudriavzevii; test: Antifungal activity against Candida krusei ATCC 6258 bloodstream forms assessed as time to achieve 90% fungal growth reduction at 0.5 mg/L by time-kill analysis
# [25] = system: Pichia kudriavzevii; test: Antifungal activity against Candida krusei ATCC 6258 bloodstream forms assessed as time to achieve 50% fungal growth reduction at 0.12 mg/L by time-kill analysis
# [26] = system: Pichia kudriavzevii; test: Antifungal activity against Candida krusei ATCC 6258 bloodstream forms assessed as time to achieve 99% fungal growth reduction at 8 mg/L by time-kill analysis
# [27] = system: Pichia kudriavzevii; test: Antifungal activity against Candida krusei CK1 bloodstream forms after 24 hrs by time-kill analysis; conditions: CK1, 24 h
# [28] = system: Pichia kudriavzevii; test: Antifungal activity against Candida krusei ATCC 6258 bloodstream forms assessed as time to achieve 50% fungal growth reduction at 32 mg/L by time-kill analysis
# [29] = system: Pichia kudriavzevii; test: Antifungal activity against Candida krusei ATCC 6258 bloodstream forms assessed as time to achieve 90% fungal growth reduction at 32 mg/L by time-kill analysis
# [30] = system: Pichia kudriavzevii; test: Antifungal activity against Candida krusei EU123 bloodstream forms after 24 hrs by time-kill analysis; conditions: EU123, 24 h
# [31] = system: Pichia kudriavzevii; test: Antifungal activity against Candida krusei CY118 bloodstream forms after 24 hrs by time-kill analysis; conditions: CY118, 24 h
# [32] = system: Pichia kudriavzevii; test: Antifungal activity against Candida krusei EU220 bloodstream forms after 24 hrs by time-kill analysis; conditions: EU220, 24 h
# [33] = system: Pichia kudriavzevii; test: Antifungal activity against Candida krusei ATCC 6258 bloodstream forms assessed as time to achieve 90% fungal growth reduction at 8 mg/L by time-kill analysis
# [34] = system: Pichia kudriavzevii; test: Antifungal activity against Candida krusei ATCC 6258 bloodstream forms assessed as time to achieve 99% fungal growth reduction at 2 mg/L by time-kill analysis
# [35] = system: Pichia kudriavzevii; test: Antifungal activity against Candida krusei ATCC 6258 bloodstream forms assessed as time to achieve 50% fungal growth reduction at 0.5 mg/L by time-kill analysis
# [36] = system: Pichia kudriavzevii; test: Antifungal activity against Candida krusei ATCC 6258 bloodstream forms assessed as minimum concentration producing >= 50% growth reduction after 24 hrs by M27-A3 microdilution method; conditions: ATCC 6258, 24 h
# [37] = system: Pichia kudriavzevii; test: Antifungal activity against Candida krusei ATCC 6258 bloodstream forms assessed as time to achieve 90% fungal growth reduction at 0.12 mg/L by time-kill analysis
# [38] = system: Pichia kudriavzevii; test: Fungicidal activity against Candida krusei EU220 bloodstream forms after 24 hrs by time-kill analysis; conditions: EU220, 24 h
# [39] = system: Pichia kudriavzevii; test: Antifungal activity against Candida krusei CK2 bloodstream forms after 24 hrs by time-kill analysis; conditions: CK2, 24 h
# [40] = system: Pichia kudriavzevii; test: Antifungal activity against Candida krusei ATCC 6258 bloodstream forms assessed as time to achieve 99.9% fungal growth reduction at 2 mg/L by time-kill analysis
# [41] = system: Pichia kudriavzevii; test: Antifungal activity against Candida krusei ATCC 6258 bloodstream forms assessed as time to achieve 99.9% fungal growth reduction at 0.12 mg/L by time-kill analysis
compound,measurement,setting,value
CC[C@H](C)C[C@H](C)CCCCCCCCC(=O)N[C@H]1C[C@@H](O)[C@@H](NCCN)NC(=O)[C@@H]2[C@@H](O)CCN2C(=O)[C@H]([C@H](O)CCN)NC(=O)[C@H]([C@H](O)[C@@H](O)c2ccc(O)cc2)NC(=O)[C@@H]2C[C@@H](O)CN2C(=O)[C@H]([C@@H](C)O)NC1=O [CASPOFUNGIN],Time,[1],12.5 h
same,Time,[2],14.3 h
same,MFC,[3],2 µg/mL
same,MFC,[4],8 µg/mL
same,MFC,[5],2 µg/mL
same,MFC50,[6],2 µg/mL
same,MFC90,[6],8 µg/mL
same,MFC,"[6]; Pichia kudriavzevii, ATCC 6258, 48 h",1 µg/mL
same,MIC50,[7],1 µg/mL
same,MIC90,[7],2 µg/mL
same,Time,[8],>48 h
same,Activity,[9],inactive
same,Time,[10],2.9 h
same,MIC,[11],1 µg/mL
same,Time,[12],29.2 h
same,MIC,[13],1 µg/mL
same,MIC,[14],1 µg/mL
same,MFC,[15],1 µg/mL
same,MIC,[16],0.8 µg/mL
same,MIC50,[16],1 µg/mL
same,MIC90,[16],2 µg/mL
same,Time,[17],>48 h
same,MFC,[18],2 µg/mL
same,Time,[19],21.4 h
same,MFC,[20],1 µg/mL
same,Time,[21],3.7 h
same,MIC50,[22],1 µg/mL
same,MIC90,[22],2 µg/mL
same,MFC,[23],> 64 µg/mL
same,Time,[24],27.6 h
same,Activity,[25],inactive
same,Time,[26],19.5 h
same,MIC,[27],1 µg/mL
same,Time,[28],2.1 h
same,Time,[29],7.1 h
same,MIC,[30],2 µg/mL
same,MIC,[31],4 µg/mL
same,MIC,[32],2 µg/mL
same,Time,[33],9.7 h
same,Time,[34],24.9 h
same,Time,[35],8.3 h
same,MIC50,[36],1 µg/mL
same,MIC90,[36],2 µg/mL
same,Activity,[37],inactive
same,MFC,[38],2 µg/mL
same,MIC,[39],1 µg/mL
same,Time,[40],37.4 h
same,Activity,[41],inactive
